Assay results from US20240360146A1, “BRUTON'S TYROSINE KINASE AND MUTANT DEGRADER, COMPOSITION AND APPLICATION THEREOF” (HANGZHOU HEALZEN THERAPEUTICS CO., LTD., priority 2021, published 2024).

Biological target: T1, BTK (Homo sapiens, UniProt Q06187)
T1 construct: endogenous in cells; host or cells: Mino cells
Assay: BTK degradation activity test in Mino cells
Format: cell-based
Settings: 16 h incubation, Western blot or Elisa
How it was run: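 Mino cells treated with a concentration series of compound for 16 h, then lysed; total protein by BCA. BTK quantified by Western blot or ELISA, degradation rate calculated against blank control, and DC50 fitted from the degradation curve.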

T1 sequence (Q06187 whole entry): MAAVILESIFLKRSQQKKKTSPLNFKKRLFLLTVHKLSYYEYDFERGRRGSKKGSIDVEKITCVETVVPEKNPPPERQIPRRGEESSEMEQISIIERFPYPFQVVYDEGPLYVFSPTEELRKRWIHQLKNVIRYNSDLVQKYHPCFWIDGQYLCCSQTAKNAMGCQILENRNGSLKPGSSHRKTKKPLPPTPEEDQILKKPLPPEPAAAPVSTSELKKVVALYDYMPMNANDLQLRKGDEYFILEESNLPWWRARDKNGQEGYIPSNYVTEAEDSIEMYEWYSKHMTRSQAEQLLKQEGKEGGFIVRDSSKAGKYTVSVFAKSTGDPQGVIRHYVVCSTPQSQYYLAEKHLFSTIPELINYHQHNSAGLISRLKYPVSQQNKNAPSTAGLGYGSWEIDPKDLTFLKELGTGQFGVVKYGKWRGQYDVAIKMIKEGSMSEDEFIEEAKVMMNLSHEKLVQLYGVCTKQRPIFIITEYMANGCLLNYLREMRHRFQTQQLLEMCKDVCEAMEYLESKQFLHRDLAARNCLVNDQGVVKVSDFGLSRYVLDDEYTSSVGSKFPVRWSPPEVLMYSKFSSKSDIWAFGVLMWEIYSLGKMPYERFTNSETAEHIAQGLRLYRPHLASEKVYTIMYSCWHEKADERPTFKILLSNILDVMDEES

Structure (SMILES): NC(=O)c1ncc(N2CCCC(N3CCN(C4CCCC4)C3=O)C2)nc1Nc1ccc(N2CCC(C#CCN3CCN(c4ccc5c(c4)C(=O)N(C4CCC(=O)NC4=O)C5=O)CC3)CC2)cc1 (stereo not shown) [Compound 029, 5-(3-(3-cyclopentyl-2-oxoimidazolin-1-yl)piperidin-1-yl)-3-((4-(4-(3-(4-(2-(2,6-dioxopiperidin-3-yl)-1,3-dioxoisoindolin-5-yl)piperazin-1-yl)propan-1-yne-1-yl)piperidin-1-yl)phenyl)amino)pyrazin-2-carboxamide]
- DC50: < 1 nM

Structure (SMILES): NC(=O)c1ncc(N2CCCC(N3CCN(C4CCCC4)C3=O)C2)nc1Nc1ccc(C2(F)CCN(CC3CCN(c4ccc5c(c4)C(=O)N(C4CCC(=O)NC4=O)C5=O)C3)CC2)cc1 (stereo not shown) [Compound 040, 5-(3-(3-cyclopentyl-2-oxoimidazolin-1-yl)piperidin-1-yl)-3-((4-(1-((1-(2-(2,6-dioxopiperidin-3-yl)-1,3-dioxoisoindolin-5-yl)pyrrolidin-3-yl)methyl)-4-fluoropiperidin-4-yl)phenyl)amino)pyrazin-2-carboxamide]
- DC50: < 1 nM

Structure (SMILES): CN1CCN([C@@H]2CCCN(c3nnc(C(N)=O)c(Nc4ccc(N5CCN(CC6CCN(c7ccc8c9c(oc8c7)C(=O)N(C7CCC(=O)NC7=O)C9)C6)CC5)c(F)c4)n3)C2)C1=O (stereo partly drawn) [Compound 221, 5-((4-(4-((1-(2-(2,6-dioxopiperidin-3-yl)-3-oxo-2,3-dihydro-H-benzofuro[2,3-c]pyrrol-6-yl)pyrrolidin-3-yl)methyl)piperazin-1-yl)-3-fluorophenyl)amino)-3-((R)-3-(3-methyl-2-oxoimidazolidin-1-yl)piperidin-1-yl)-1,2,4-triazin-6-carboxamide]
- DC50: < 1 nM

Structure (SMILES): CN1CCN(C2CCCN(c3nc(Nc4ccc(C5(C)CCN(CC6CCN(c7ccc8c(c7)C(=O)N(C7CCC(=O)NC7=O)C8=O)C6)CC5)cc4)c(C(N)=O)cc3F)C2)C1=O (stereo not shown) [Compound 037, 2-((4-(1-((1-(2-(2,6-dioxopiperidin-3-yl)-1,3-dioxoisoindolin-5-yl)pyrrolidin-3-yl)methyl)-4-methylpiperidin-4-yl)phenyl)amino)-5-fluoro-6-(3-(3-methyl-2-oxoimidazolin-1-yl)piperidin-1-yl)nicotinamide]
- DC50: > 1 nM

Structure (SMILES): CC1(c2ccc(Nc3nc(N4CCCC(N5CCN(C6COC6)C5=O)C4)cnc3C(N)=O)cc2)CCN(C2CCN(c3ccc4c(c3)C(=O)N(C3CCC(=O)NC3=O)C4=O)CC2)CC1 (stereo not shown) [Compound 012, 3-((4-(1′-(2-(2,6-dioxopiperidin-3-yl)-1,3-dioxoisoindol-5-yl)-4-methyl-[1,4′-bipiperidin]-4-yl)phenyl)amino)-5-(3-(3-(oxetan-3-yl)-2-oxoimidazolin-1-yl)piperidin-1-yl)pyrazin-2-carboxamide]
- DC50: < 1 nM

Structure (SMILES): Cc1cc(N2CC(CC(=O)N3CCC(c4ccc(Nc5nc(N6CCC[C@@H](N7CCN(C)C7=O)C6)nnc5C(N)=O)c(CO)c4)CC3)C2)ccc1N1CCC(=O)NC1=O [Compound 239, (R)-5-((4-(1-(2-(1-(4-(2,4-dioxotetrahydropyrimidin-1(2H)-yl)-3-methylphenyl)azetidin-3-yl)acetyl)piperidin-4-yl)-2-(hydroxymethyl)phenyl)amino)-3-(3-(3-methyl-2-oxoimidazolidin-1-yl)piperidin-1-yl)-1,2,4-triazin-6-carboxamide]
- DC50: < 1 nM

Structure (SMILES): CN1CCN(C2CCCN(c3nnc(C(N)=O)c(Nc4ccc(C5(C)CCN(C6CCN(c7ccc8c(c7)C(=O)N(C7CCC(=O)NC7=O)C8=O)CC6)CC5)cc4)n3)C2)C1=O (stereo not shown) [Compound 078, 5-((4-(1′-(2-(2,6-dioxopiperidin-3-yl)-1,3-dioxoisoindol-5-yl)-4-methyl-[1,4′-bipiperidin]-4-yl)phenyl)amino)-3-(3-(3-methyl-2-oxoimidazolidin-1-yl)piperidin-1-yl)-1,2,4-triazin-6-carboxamide]
- DC50: < 1 nM

Structure (SMILES): CN1CCN(C2CC3CC2N(c2nnc(C(N)=O)c(Nc4ccc(C5CCN(C6CN(c7ccc8c(c7)C(=O)N(C7CCC(=O)NC7=O)C8=O)C6)CC5)cc4)n2)C3)C1=O (stereo not shown) [Compound 049, 5-((4-(1-(1-(2-(2,6-dioxopiperidin-3-yl)-1,3-dioxoisoindolin-5-yl)azetidin-3-yl)piperidin-4-yl)phenyl)amino)-3-(-6-(3-methyl-2-oxoimidazolin-1-yl)-2-azabicyclo[2.2.1]heptan-2-yl)-1,2,4-triazin-6-carboxamide]
- DC50: < 1 nM

Structure (SMILES): NC(=O)c1nnc(N2CCCC(N3CCN(C4CC4)C3=O)C2)nc1Nc1ccc(C2CCN(CC3CCN(c4ccc5c(c4)C(=O)N(C4CCC(=O)NC4=O)C5=O)CC3)CC2)cc1 (stereo not shown) [Compound 058, 3-(3-(3-cyclopropyl-2-oxoimidazolin-1-yl)piperidin-1-yl)-5-((4-(1-((1-(2-(2,6-dioxopiperidin-3-yl)-1,3-dioxoisoindol-5-yl)piperidin-4-yl)methyl)piperidin-4-yl)phenyl)amino)-1,2,4-triazin-6-carboxamide]
- DC50: < 1 nM

Structure (SMILES): CN1CCN([C@@H]2CCCN(c3nnc(C(N)=O)c(Nc4ccc(N5CCN(CC#Cc6ccn7c(N8CCC(=O)NC8=O)cnc7c6)CC5)c(F)c4)n3)C2)C1=O [Compound 246, (R)-5-((4-(4-(3-(3-(2,4-dioxotetrahydropyrimidin-1(2H)-yl)imidazo[1,2-a]pyridin-7-yl)propan-2-yn-1-yl)piperazin-1-yl)-3-fluorophenyl)amino)-3-(3-(3-methyl-2-oxoimidazolidin-1-yl)piperidin-1-yl)-1,2,4-triazin-6-carboxamide]
- DC50: < 1 nM

Structure (SMILES): NC(=O)c1ncc(N2CCCC(N3CCN(C4COC4)C3=O)C2)nc1Nc1ccc2c(c1)CCN(CC1CCN(c3ccc4c(c3)C(=O)N(C3CCC(=O)NC3=O)C4=O)CC1)C2 (stereo not shown) [Compound 031, 3-((2-((1-(2-(2,6-dioxopiperidin-3-yl)-1,3-dioxoisoindol-5-yl)piperidin-4-yl)methyl)-1,2,3,4-tetrahydroisoquinolin-6-yl)amino)-5-(3-(3-(oxetan-3-yl)-2-oxoimidazolin-1-yl)piperidin-1-yl)pyrazin-2-carboxamide]
- DC50: < 1 nM

Structure (SMILES): CN1CCN([C@@H]2CCCN(c3nnc(C(N)=O)c(Nc4ccc(N5CCN(CC6CCN(c7ccn8c(N9CCC(=O)NC9=O)cnc8c7)CC6)CC5)c(F)c4)n3)C2)C1=O [Compound 245]
- DC50: < 1 nM

Structure (SMILES): Cc1cc(N2CCC(CN3CCC(c4ccc(Nc5nc(N6CCC[C@@H](N7CCN(C)C7=O)C6)c(F)nc5C(N)=O)cc4F)CC3)CC2)ccc1N1CCC(=O)NC1=O [Compound 241, (R)-3-((4-(1-((1-(4-(2,4-dioxotetrahydropyrimidin-1(2H)-yl)-3-methylphenyl)piperidin-4-yl)methyl)piperidin-4-yl)-3-fluorophenyl)amino)-6-fluoro-5-(3-(3-methyl-2-oxoimidazolidin-1-yl)piperidin-1-yl)pyrazin-2-carboxamide]
- DC50: < 1 nM

Structure (SMILES): CN1CCN(C2CCCN(c3nnc(C(N)=O)c(Nc4ccc(C5CCN(CC6CCN(c7ccc8c(c7)C(=O)N(C7CCC(=O)NC7=O)C8)CC6)CC5)cc4)n3)C2)C1=O (stereo not shown) [Compound 086, 5-((4-(1-((1-(2-(2,6-dioxopiperidin-3-yl)-3-oxoisoindol-5-yl)piperidin-4-yl)methyl)piperidin-4-yl)phenyl)amino)-3-(3-(3-methyl-2-oxoimidazolin-1-yl)piperidin-1-yl)-1,2,4-triazin-6-carboxamide]
- DC50: < 1 nM

Structure (SMILES): NC(=O)c1ncc(N2CCCC(N3CCN(C4CCCC4)C3=O)C2)nc1Nc1ccc(C(=O)C2CCN(CC3CCN(c4ccc5c(c4)C(=O)N(C4CCC(=O)NC4=O)C5=O)CC3)CC2)cc1 (stereo not shown) [Compound 028, 5-(3-(3-cyclopentyl-2-oxoimidazolin-1-yl)piperidin-1-yl)-3-((4-(1-((1-(2-(2,6-dioxopiperidin-3-yl)-1,3-dioxoisoindolin-5-yl)piperidin-4-yl)methyl)piperidin-4-formyl)phenyl)amino)pyrazin-2-carboxamide]
- DC50: > 1 nM

Structure (SMILES): NC(=O)c1nnc(N2CCCC(N3CCN(C4CCC4)C3=O)C2)nc1Nc1ccc(C2CCN(CC3CCN(c4ccc5c(c4)C(=O)N(C4CCC(=O)NC4=O)C5=O)CC3)CC2)cc1 (stereo not shown) [Compound 059, 3-(3-(3-cyclobutyl-2-oxoimidazolin-1-yl)piperidin-1-yl)-5-((4-(1-((1-(2-(2,6-dioxopiperidin-3-yl)-1,3-dioxoisoindol-5-yl)piperidin-4-yl)methyl)piperidin-4-yl)phenyl)amino)-1,2,4-triazin-6-carboxamide]
- DC50: > 1 nM

Structure (SMILES): CN1CCN([C@@H]2CCCN(c3nnc(C(N)=O)c(Nc4ccc(N5CCN(C[C@@H]6CCN(c7ccc(C(=O)N[C@H]8CCC(=O)NC8=O)nc7)C6)CC5)c(F)c4)n3)C2)C1=O [Compound 154, 5-((4-(4-(((S)-1-(6-(((S)-2,6-dioxopiperidin-3-yl)carbamoyl)pyridin-3-yl)pyrrolidin-3-yl)methyl)piperazin-1-yl)-3-fluorophenyl)amino)-3-((R)-3-(3-methyl-2-oxoimidazolin-1-yl)piperidin-1-yl)-1,2,4-triazin-6-carboxamide]
- DC50: < 1 nM

Structure (SMILES): CN1CCN([C@@H]2CCCN(c3nnc(C(N)=O)c(Nc4ccc(N5CCN(CC6CCN(c7ccc(N8CCC(=O)NC8=O)cc7P(C)(C)=O)CC6)CC5)c(F)c4)n3)C2)C1=O [Compound 198, (R)-5-((4-(4-((1-(2-(dimethylphosphoryl)-4-(2,4-dioxotetrahydropyrimidin-1(2H)-yl)phenyl)piperidin-4-yl)methyl)piperazin-1-yl)-3-fluorophenyl)amino)-3-(3-(3-methyl-2-oxoimidazolidin-1-yl)piperidin-1-yl)-1,2,4-triazin-6-carboxamide]
- DC50: < 1 nM

Structure (SMILES): CN1CCN(C2CCCN(c3nnc(C(N)=O)c(Nc4ccc(C5CCN(C6CN(c7ccc8c(c7)C(=O)N(C7CCC(=O)NC7=O)C8=O)C6)CC5)cc4)n3)C2)C1=O (stereo not shown) [Compound 077, 5-((4-(1-(1-(2-(2,6-dioxopiperidin-3-yl)-1,3-dioxoisoindol-5-yl)azetidin-3-yl)piperidin-4-yl)phenyl)amino)-3-(3-(3-methyl-2-oxoimidazolin-1-yl)piperidin-1-yl)-1,2,4-triazin-6-carboxamide]
- DC50: < 1 nM
